Test results taken from PubChem BioAssay (NCI).
Several values for one entry are separate records, joined by “and”; a condition that tells them apart may be missing. Identical values can stand only once.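 Step 1: Grow cells in 96-well plates. Step 2: Expose to compound for 48 hours at 5 concentrations. Step 3: Interpolate endpoints linearly; if unreached, use highest concentration. GI50: concentration for 50% inhibition of growth. TGI: total growth inhibition.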

Columns and labels:
Assay in all cases: growth of human tumour cells (NCI), 48 h
[1] = tested on: ACHN renal
[2] = tested on: CCRF-CEM leukemia
[3] = tested on: MCF7 breast
[4] = tested on: MOLT-4 leukemia
[5] = tested on: OVCAR-4 ovarian
[6] = tested on: RXF 393 renal
[7] = tested on: SK-MEL-5 melanoma
[8] = tested on: UACC-257 melanoma
[9] = tested on: SF-539 CNS
[10] = tested on: SR leukemia

| SMILES | GI50 [1] | TGI [1] | GI50 [2] | TGI [2] | GI50 [3] | TGI [3] | GI50 [4] | TGI [4] | GI50 [5] | TGI [5] | GI50 [6] | TGI [6] | GI50 [7] | TGI [7] | GI50 [8] | TGI [8] | GI50 [9] | TGI [9] | TGI [10] |
| --- | --- | --- | --- | --- | --- | --- | --- | --- | --- | --- | --- | --- | --- | --- | --- | --- | --- | --- | --- |
| COc1ccc(C(=NN=C(N)N)c2ccc(OC)cc2)cc1 | 3.49 µM | 13.3 µM | 5.18 µM | 42.6 µM | 2.89 µM | 12.4 µM | 3.89 µM | 16.7 µM | 3.46 µM | 16.4 µM | 1.81 µM | 4.82 µM | 2.25 µM | 5.76 µM | 7.24 µM | 25.1 µM |  |  |  |
| COc1cc(/C=C/c2cc(/C=C/c3ccc(O)c(OC)c3)n(C(=O)Nc3ccccc3Cl)n2)ccc1O | 0.344 µM | 5.35 µM | 0.216 µM | 0.844 µM | 0.29 µM | 1.4 µM | 0.269 µM | 1.2 µM | 0.722 µM | 9.09 µM | 0.309 µM | 0.845 µM | 0.299 µM | 1.22 µM | 1.02 µM | 3.71 µM | 0.352 µM | 1.58 µM |  |
| COc1cccc(/C=C/C(=O)c2sc(C(N)=S)nc2C)c1O |  | > 100 µM |  | 64.2 µM |  |  |  | > 82.8 µM |  | > 100 µM |  | > 100 µM |  | > 100 µM |  | > 100 µM |  | 97 µM | 32.5 µM |
| Cc1ccc(S(=O)(=O)N2CCN(C=S)CC2)cc1 |  | > 100 µM |  | > 100 µM |  |  |  | > 100 µM |  |  |  | > 100 µM |  | > 100 µM |  | > 100 µM |  | > 100 µM | > 100 µM |
| COCCOC1=CC(=O)c2c(O)ccc(O)c2C1=O | 1.63 µM | 3.41 µM and 3.14 µM | 1.92 µM | 7.01 µM and 4.31 µM | 0.51 µM | 0.933 µM and 1.92 µM | 1.44 µM | 8.03 µM and 3.53 µM | 1.61 µM | 3.3 µM and 2.97 µM | 1.5 µM | 3.63 µM and 2.94 µM |  | 0.3 µM and 0.295 µM | 0.626 µM | 0.409 µM and 2.06 µM |  | 3.12 µM and 3.16 µM |  |
| CN(C)CCC(CCN(C)C)=NO |  | > 100 µM |  | > 100 µM |  |  |  | > 100 µM |  | > 100 µM |  | > 100 µM |  | > 100 µM |  | > 100 µM |  | > 100 µM |  |
| CC(=O)O[C@H]1CCN2C(=O)C=CC(OCc3ccccc3)C12 (stereo partly drawn) |  | > 100 µM |  | > 100 µM |  |  |  | > 100 µM |  | > 100 µM |  |  |  | > 100 µM |  | > 100 µM |  | > 100 µM |  |
| O=C(COc1cccc(/C=C2\CSc3ccc(Cl)cc3C2=O)c1)c1ccc(Cl)cc1 | 12.5 µM | 25 µM | 1.66 µM | 4.22 µM | 2.12 µM | 10.4 µM | 1.84 µM | 4.46 µM | 9.25 µM | 23.1 µM | 14.1 µM | 34.3 µM | 5.33 µM | 19.6 µM | 13.4 µM | 30.8 µM | 16.8 µM | 31.2 µM |  |
| CCOC(=O)C(CCC(N)=O)(CCC(=O)OC)C(=O)OCC |  | > 100 µM |  |  |  |  |  | > 100 µM |  | > 100 µM |  | > 100 µM |  |  |  | > 100 µM |  | > 100 µM | > 100 µM |
| CCOc1ccc(/C=C/c2cc(OC)c(OC)c(OC)c2)cc1 |  | > 64.8 µM |  | > 66.8 µM |  |  |  | 44.6 µM |  | > 100 µM | 0.448 µM | 5 µM |  | 14.6 µM |  | > 100 µM |  | 3.02 µM | > 100 µM |
| O=C1C(=C([O-])c2ccccc2)C(=O)c2ccccc21.O=C1C(=C([O-])c2ccccc2)C(=O)c2ccccc21.[Mn+2] |  |  |  |  |  |  | > 100 µM | > 100 µM | > 100 µM | > 100 µM | 89.6 µM | > 100 µM | 16.1 µM | > 100 µM | 22.6 µM | 48.4 µM | > 100 µM | > 100 µM |  |
| OCC[N+]12CCCN1CCC2 |  | > 100 µM |  | > 100 µM |  |  |  | > 100 µM |  | > 100 µM |  | > 100 µM |  | > 100 µM |  | > 100 µM |  | > 100 µM | > 100 µM |
| c1ccncc1 |  | > 100 µM |  | > 100 µM |  |  |  | > 100 µM |  | > 100 µM |  | > 100 µM |  | > 100 µM |  | > 100 µM |  | > 100 µM | > 100 µM |
| COC(=O)[C@]12CC[C@@H](C)[C@H](C)[C@@H]1C1=CC[C@@H]3[C@@]4(C)C[C@@H](OC(=O)/C=C/c5ccccc5)[C@H](O)[C@@](C)(CO)[C@@H]4[C@H](O)C[C@@]3(C)[C@]1(C)CC2 | 3.11 µM | 11.4 µM | 2.88 µM | 10.4 µM | 3.12 µM | 11.5 µM | 2.27 µM | 7.31 µM | 3.23 µM | 13.4 µM | 1.74 µM | 3.84 µM | 1.93 µM | 4.23 µM |  |  | 2.08 µM | 4.77 µM |  |
| COc1ccc(/C=C2\COc3ccc(O)c(O)c3C2=O)c(OC)c1OC | 1.78 µM | 3.96 µM |  |  | 2.65 µM | 86.5 µM | 1.87 µM | > 100 µM | 2.74 µM | 17.8 µM | 1.87 µM | 3.54 µM | 2.25 µM | 5.33 µM | 2.88 µM | 18.3 µM | 2.4 µM | 6.87 µM |  |
| Oc1ccc2ccccc2c1N=Nc1cc(Cl)ccc1Cl |  | 24.7 µM |  | > 50 µM |  |  |  | > 50 µM |  | 28.8 µM |  | > 50 µM |  | > 50 µM |  | > 50 µM |  |  |  |
| Cc1ccc(/C=C(\NC(=O)c2ccccc2)c2nc3ccccc3[nH]2)cc1 |  | > 100 µM |  |  |  |  |  |  |  | > 100 µM |  | > 100 µM |  | 36.7 µM |  | > 100 µM |  | > 100 µM | > 100 µM |
| Cc1cc(N2CCCCC2)nc(NC2CCCC(Nc3ccnc4cc(Cl)ccc34)C2)n1 (stereo not drawn) | 1.54 µM | 2.98 µM | 1.48 µM | 10.6 µM |  |  | 1.21 µM | 3.7 µM | 1.4 µM | 3.29 µM | 1.12 µM | 2.47 µM | 1.64 µM | 3 µM | 1.92 µM | 3.55 µM |  |  |  |
| NC1CCCCC1N.O=C1C=C/C(=C(/c2ccc(O)c(Br)c2)c2ccccc2S(=O)(=O)[O-])C=C1Br.O=C1C=C/C(=C(/c2ccc(O)c(Br)c2)c2ccccc2S(=O)(=O)[O-])C=C1Br.[Pt+4] | 1.42 µM | > 100 µM |  |  |  |  |  |  | 2.35 µM | > 100 µM | 19.8 µM | 89.7 µM | 3.29 µM | 21.4 µM | 5.38 µM | > 100 µM | 2.62 µM | 50.8 µM |  |
| N#CCC(=O)N/N=C1/C(=O)N(c2cc(Cl)ccc2Cl)C(=O)C(=O)C1c1nc2ccccc2s1 (stereo not drawn) |  | > 100 µM |  | > 100 µM |  |  |  | > 100 µM |  | > 100 µM |  | 28.5 µM |  | > 100 µM |  | > 100 µM |  | > 100 µM |  |
| CSc1ccc2c(cc1=O)[C@@H](NC(=O)c1ccc(Cl)cc1)CCc1cc(O)c(O)c(O)c1-2 |  | > 100 µM |  | > 100 µM |  |  |  | > 100 µM |  | 82 µM |  | > 100 µM |  | > 100 µM |  | > 100 µM |  | > 100 µM |  |
| O=C(N/C(=C\c1cccc([N+](=O)[O-])c1)c1nc2ccccc2[nH]1)c1ccccc1 |  | > 100 µM |  | > 100 µM |  |  |  | > 100 µM |  | > 100 µM |  |  |  | > 100 µM |  | > 100 µM |  | > 100 µM | > 100 µM |
| CC(C)(C)c1cc(CCCCCCCC2(CCCCCCCc3cc(C(C)(C)C)cc(C(C)(C)C)c3)OC(COCCOCCCCCC#N)C(COCCOCCCCCC#N)O2)cc(C(C)(C)C)c1 (stereo not drawn) |  | > 100 µM |  | > 100 µM |  |  |  |  |  | > 100 µM |  | > 100 µM |  | > 100 µM |  | > 100 µM |  |  |  |
| CCn1c2ccccc2c(=O)c2c(OC)ccc(OC)c21 |  | > 100 µM |  | > 100 µM |  |  |  | > 100 µM |  | > 100 µM |  | 80.1 µM |  |  |  | > 100 µM |  | > 100 µM | > 100 µM |
| CC(C)(C)C(=O)Nc1cccc2oc(-c3ccccc3)cc12 |  | > 100 µM |  | > 100 µM |  |  |  | > 100 µM |  | > 100 µM |  | > 100 µM |  |  |  | > 100 µM |  | > 100 µM | > 100 µM |
| O=C(NCCCl)Nc1cccnc1 |  | 27.4 µM |  | > 100 µM |  | > 100 µM |  | 81.8 µM |  | 90.7 µM |  | > 100 µM |  | > 100 µM |  | 72.2 µM |  | > 100 µM |  |
| N#Cc1c(NC(=O)c2ccc(F)cc2)sc2c1CCCC2 | > 25 µM | > 25 µM | > 25 µM | > 25 µM | > 25 µM | > 25 µM | > 25 µM | > 25 µM | > 25 µM | > 25 µM | > 25 µM | > 25 µM | > 25 µM | > 25 µM | > 25 µM | > 25 µM | > 25 µM | > 25 µM |  |
| Cc1[nH]c2ccccc2c1CC/C(=N\Nc1ccccc1)c1ccccc1 |  | > 100 µM |  | > 100 µM |  |  |  | > 100 µM |  | > 100 µM |  | > 100 µM |  | > 100 µM |  | > 100 µM |  | > 100 µM |  |
| CCOC(=O)C1=C(C)NC(=O)NC1CN1C(=O)c2ccccc2C1=O (stereo not drawn) | > 100 µM | > 100 µM | > 100 µM | > 100 µM | > 100 µM | > 100 µM | > 100 µM | > 100 µM | > 100 µM | > 100 µM | > 100 µM | > 100 µM | > 100 µM | > 100 µM | > 100 µM | > 100 µM | > 100 µM | > 100 µM |  |
